Reference: ChEMBL document CHEMBL1201862, “PubChem BioAssay data set” (2004)
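Test compounds were applied to cells in 96-well plates for 48 hours at 5 doses. At the GI50, growth is halved.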 The source made the active and inactive calls. No stated cut-off is given here; in the data, active = GI50 up to about 1.1 µM and inactive = higher.

Columns and labels:
Assay in all cases: DTP human tumour cell line panel, 48 h
[1] = tested on: SNB-19
[2] = tested on: TK-10
[3] = tested on: OVCAR-3
[4] = tested on: T47D
[5] = tested on: Malme-3M
[6] = tested on: SW-620
[7] = tested on: PC-3
[8] = tested on: MDA-MB-231
[9] = tested on: SNB-75
[10] = tested on: MOLT-4
[11] = tested on: NCI-H460
[12] = tested on: HCC 2998
[13] = tested on: SK-MEL-5
[14] = tested on: UACC-62
[15] = tested on: SF-539
[16] = tested on: CAKI-1
[17] = tested on: CCRF-CEM
[18] = tested on: SK-MEL-2
[19] = tested on: NCI-H522
[20] = tested on: LOX IMVI

## CCOC(=O)/C=C(\C(=O)OCC)n1ccc(=O)n(Cc2cn(COCCOC(C)=O)nn2)c1=O
[1]
  GI50: > 50.4 µM (inactive)
[2]
  GI50: 15.2 µM (inactive)
[3]
  GI50: 23.2 µM (inactive)
[4]
  GI50: 24.3 µM (inactive)
[5]
  GI50: 15.2 µM (inactive)
[6]
  GI50: 9.18 µM (inactive)
[7]
  GI50: 20.3 µM (inactive)
[8]
  GI50: 20.2 µM (inactive)
[9]
  GI50: > 42.7 µM (inactive)
[10]
  GI50: 14.9 µM (inactive)
[11]
  GI50: > 38.1 µM (inactive)
[12]
  GI50: 16.6 µM (inactive)
[13]
  GI50: 21.5 µM (inactive)
[14]
  GI50: 18.8 µM (inactive)
[15]
  GI50: 20.1 µM (inactive)
[16]
  GI50: 8.67 µM (inactive)
[17]
  GI50: 2.83 µM (inactive)
[18]
  GI50: 20.8 µM (inactive)
[19]
  GI50: 2.71 µM (inactive)
[20]
  GI50: 17.9 µM (inactive)

## COC(=O)CN1c2nc(C#N)c(C#N)nc2N(CC(=O)OC)c2nc(C#N)c(C#N)nc21
[1]
  GI50: 12 µM (inactive)
[2]
  GI50: 2.5 µM (inactive)
[3]
  GI50: 2.92 µM (inactive)
[4]
  GI50: 2.35 µM (inactive)
[5]
  GI50: 0.301 µM (active)
[6]
  GI50: 1.76 µM (inactive)
[7]
  GI50: 4.15 µM (inactive)
[8]
  GI50: 6.73 µM (inactive)
[9]
  GI50: 14 µM (inactive)
[10]
  GI50: 0.479 µM (active)
[11]
  GI50: 22 µM (inactive)
[12]
  GI50: 16.7 µM (inactive)
[13]
  GI50: 5.4 µM (inactive)
[14]
  GI50: 5.45 µM (inactive)
[15]
  GI50: 7.11 µM (inactive)
[16]
  GI50: 0.54 µM (active)
[17]
  GI50: 1.01 µM (active)
[18]
  GI50: 8.81 µM (inactive)
[19]
  GI50: 0.863 µM (active)
[20]
  GI50: 2.2 µM (inactive)

## Nc1ccn(C2CCC(COP(=O)(O)OCC(O)COP(=O)(O)OCC3OC(n4cc(F)c(=O)[nH]c4=O)CC3O)O2)c(=O)n1 (stereo not given)
[1]
  GI50: 0.211 µM (active)
[2]
  GI50: 5.14 µM (inactive)
[3]
  GI50: 23.2 µM (inactive)
[4]
  GI50: 1.42 µM (inactive)
[5]
  GI50: > 53.8 µM (inactive)
[6]
  GI50: > 100 µM (inactive)
[7]
  GI50: 2.01 µM (inactive)
[8]
  GI50: 44.1 µM (inactive)
[9]
  GI50: 3.54 µM (inactive)
[10]
  GI50: 0.102 µM (active)
[11]
  GI50: < 0.01 µM (active)
[12]
  GI50: 0.656 µM (active)
[13]
  GI50: 0.514 µM (active)
[14]
  GI50: 0.136 µM (active)
[15]
  GI50: 0.0216 µM (active)
[16]
  GI50: 0.316 µM (active)
[17]
  GI50: 0.124 µM (active)
[18]
  GI50: 75.3 µM (inactive)
[19]
  GI50: 0.628 µM (active)
[20]
  GI50: < 0.0149 µM (active)

## N#CCCN(CCC#N)c1ccc(/C=N\c2ccc(F)cc2)cc1
[1]
  GI50: > 100 µM (inactive)
[2]
  GI50: > 24 µM (inactive)
[3]
  GI50: > 79.1 µM (inactive)
[4]
  GI50: > 100 µM (inactive)
[5]
  GI50: > 84.3 µM (inactive)
[6]
  GI50: 19.3 µM (inactive)
[7]
  GI50: 75.3 µM (inactive)
[8]
  GI50: > 100 µM (inactive)
[9]
  GI50: 73.6 µM (inactive)
[10]
  GI50: > 19.8 µM (inactive)
[11]
  GI50: 7.01 µM (inactive)
[12]
  GI50: 1.33 µM (inactive)
[13]
  GI50: 14.5 µM (inactive)
[14]
  GI50: 0.536 µM (active)
[15]
  GI50: 15.2 µM (inactive)
[16]
  GI50: > 68.5 µM (inactive)
[17]
  GI50: 20.8 µM (inactive)
[18]
  GI50: > 16.1 µM (inactive)
[19]
  GI50: > 100 µM (inactive)
[20]
  GI50: 0.236 µM (active)

## CCOc1ccc(/N=C/c2ccnc3ccccc23)cc1
[1]
  GI50: 82.8 µM (inactive)
[2]
  GI50: 92.3 µM (inactive)
[3]
  GI50: 31 µM (inactive)
[4]
  GI50: 47.9 µM (inactive)
[5]
  GI50: 75.9 µM (inactive)
[6]
  GI50: 4.56 µM (inactive)
[7]
  GI50: 31.5 µM (inactive)
[8]
  GI50: 20.7 µM (inactive)
[9]
  GI50: 29.2 µM (inactive)
[10]
  GI50: 5.9 µM (inactive)
[11]
  GI50: 61.7 µM (inactive)
[12]
  GI50: 32.4 µM (inactive)
[13]
  GI50: 8.15 µM (inactive)
[14]
  GI50: 60.8 µM (inactive)
[15]
  GI50: 26.5 µM (inactive)
[16]
  GI50: 74.3 µM (inactive)
[17]
  GI50: 2.63 µM (inactive)
[18]
  GI50: 61.8 µM (inactive)
[19]
  GI50: 36.3 µM (inactive)
[20]
  GI50: 13.2 µM (inactive)
